Assay results reported in patent US11084818B2 (HEPO PHARMACEUTICAL CO., LTD., priority 2016, dated 2021).

How the values were obtained:
[1] = target: T1, hTLR7 (Homo sapiens, UniProt Q9NYK1); experiment: Activation activity test of hTLR7 (HEK-Blue hTLR7 cells, QUANTI-Blue OD650); type: cell-based; settings: 24 hours incubation, read-out: TLR7 (EC50)
T1 construct: host or cells: HEK-Blue hTLR7 (HEK293-derived reporter line)
T1 sequence (Q9NYK1 27-1049): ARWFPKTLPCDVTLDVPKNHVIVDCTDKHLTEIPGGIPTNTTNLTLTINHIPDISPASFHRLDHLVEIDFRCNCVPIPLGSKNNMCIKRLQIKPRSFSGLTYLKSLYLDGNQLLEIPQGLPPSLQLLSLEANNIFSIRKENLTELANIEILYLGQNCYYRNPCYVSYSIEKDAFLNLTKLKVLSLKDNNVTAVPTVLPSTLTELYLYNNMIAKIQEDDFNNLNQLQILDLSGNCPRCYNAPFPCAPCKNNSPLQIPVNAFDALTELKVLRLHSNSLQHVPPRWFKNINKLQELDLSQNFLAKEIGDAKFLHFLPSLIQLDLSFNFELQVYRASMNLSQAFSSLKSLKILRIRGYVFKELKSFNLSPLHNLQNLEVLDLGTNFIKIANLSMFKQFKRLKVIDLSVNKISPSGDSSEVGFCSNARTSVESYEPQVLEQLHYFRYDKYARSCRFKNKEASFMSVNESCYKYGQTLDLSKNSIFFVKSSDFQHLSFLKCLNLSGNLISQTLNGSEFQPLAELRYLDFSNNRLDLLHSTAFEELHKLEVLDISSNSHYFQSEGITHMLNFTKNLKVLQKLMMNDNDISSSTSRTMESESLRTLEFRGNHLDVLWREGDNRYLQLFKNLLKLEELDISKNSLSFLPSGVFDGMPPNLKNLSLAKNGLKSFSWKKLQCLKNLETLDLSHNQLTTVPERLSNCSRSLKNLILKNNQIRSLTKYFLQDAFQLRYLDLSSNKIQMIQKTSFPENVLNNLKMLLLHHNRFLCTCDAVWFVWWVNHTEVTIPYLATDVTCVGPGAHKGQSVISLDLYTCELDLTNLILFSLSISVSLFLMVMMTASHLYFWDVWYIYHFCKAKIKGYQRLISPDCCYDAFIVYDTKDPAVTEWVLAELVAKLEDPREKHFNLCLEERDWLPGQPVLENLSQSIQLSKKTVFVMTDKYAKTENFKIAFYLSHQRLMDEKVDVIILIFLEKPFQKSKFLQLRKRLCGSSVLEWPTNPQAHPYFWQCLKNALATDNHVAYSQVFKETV
Protocol: (§1) Effect Example 1: Activation Activity Test of hTLR7 and hTLR8
(§2) Cell lines: HEK-Blue™ hTLR7 and HEK-Blue™ hTLR8 (InvivoGen Co.)
(§3) Primary reagents: QUANTI-Blue™ (InvivoGen) and ATPlite 1 Step (PerkinElmer)
(§4) Primary instruments: Automatic Liquid Handling Workstation (Labcyte, Model: Echo), Cell Counter (Countstar, IC1000) and Multifunctional Enzyme Marker (Molecular Device, Flexstation III).
(§5) 2.1 The tested compounds were formulated into a 60 mM concentrated stock solution in DMSO and stored in a nitrogen cabinet.
(§6) 2.3 The T150 cultured cells were taken out from the CO2 incubator and the cell culture supernatant was discarded. The cells were washed with PBS once, followed by addition of about 10 mL of the culture solution. The cells were dissociated by patting the cell culture flask, and gently blown to even by a pipette.
(§7) The cells were counted, and the cell suspension was adjusted to 200,000 cells/mL by the culture solution. Thereafter, 200 μL of diluted cells was added to each well in a 96-well plate containing the compound (40,000 cells/well).
(§8) 2.4 The compounds and cells were incubated in a 5% CO2 incubator at 37° C. for 24 hours.
(§9) 2.5 Compound activity assay: 20 μl of the cell supernatant of each well after induction was added to a cell culture plate containing 180 μL of reagent QUANTI-Blue™, and incubated at 37° C. for 1.5 hours. Thereafter, the optical density absorption (OD650) of each well at 650 nm was measured using a Multifunctional Enzyme Marker: Flexstation III.
(§10) 2.6 Compound Activity: OD650 values were analyzed using GraphPad Prism software and the dose-response curves for the compound were fitted to calculate the EC50 values of the compound.

[2] = target: T2, hTLR8 (Homo sapiens, UniProt Q9NR97); experiment: Activation activity test of hTLR8 (HEK-Blue hTLR8 cells, QUANTI-Blue OD650); type: cell-based; settings: for EC50: HEK-Blue hTLR8 cells, 24 hours incubation, read-out: TLR8 (EC50)
T2 construct: host or cells: HEK-Blue hTLR8 (HEK293-derived reporter line)
T2 sequence (Q9NR97 27-1041): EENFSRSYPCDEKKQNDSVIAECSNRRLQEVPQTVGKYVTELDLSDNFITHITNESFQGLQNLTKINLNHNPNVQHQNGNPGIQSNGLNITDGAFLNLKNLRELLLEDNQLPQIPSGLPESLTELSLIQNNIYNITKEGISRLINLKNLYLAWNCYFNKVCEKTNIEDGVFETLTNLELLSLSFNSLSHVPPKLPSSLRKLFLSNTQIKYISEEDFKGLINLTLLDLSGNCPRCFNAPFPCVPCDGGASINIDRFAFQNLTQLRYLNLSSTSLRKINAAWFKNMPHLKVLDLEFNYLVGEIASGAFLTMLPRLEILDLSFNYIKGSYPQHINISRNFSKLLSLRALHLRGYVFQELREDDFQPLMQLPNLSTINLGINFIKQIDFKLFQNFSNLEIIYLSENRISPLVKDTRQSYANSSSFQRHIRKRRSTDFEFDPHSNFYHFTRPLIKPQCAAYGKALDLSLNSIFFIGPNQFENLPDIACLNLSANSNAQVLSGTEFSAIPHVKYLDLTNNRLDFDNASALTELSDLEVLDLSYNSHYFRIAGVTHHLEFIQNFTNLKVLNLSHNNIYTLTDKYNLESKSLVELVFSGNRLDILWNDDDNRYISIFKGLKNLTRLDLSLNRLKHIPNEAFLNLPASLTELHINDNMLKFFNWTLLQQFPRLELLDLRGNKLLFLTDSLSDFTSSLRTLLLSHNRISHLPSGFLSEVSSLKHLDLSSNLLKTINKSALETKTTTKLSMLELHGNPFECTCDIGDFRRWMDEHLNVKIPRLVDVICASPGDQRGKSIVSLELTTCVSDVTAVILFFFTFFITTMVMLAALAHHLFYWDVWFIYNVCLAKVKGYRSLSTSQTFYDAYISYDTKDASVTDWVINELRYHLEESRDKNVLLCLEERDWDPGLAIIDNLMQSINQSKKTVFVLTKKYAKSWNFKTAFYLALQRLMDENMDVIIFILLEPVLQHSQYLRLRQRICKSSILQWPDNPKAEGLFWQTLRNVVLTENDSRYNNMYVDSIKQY
Protocol: as §1, §2, §3, §4, §5, §6, §7, §8, §9, §10

Compound | EC50 [1] | EC50 [2] | agonistic activity against TLR8 ([2]; in words, from Table 1)
COCCOc1ncc2[nH]c(=O)n(Cc3cccc(CN4CCC[C@H]4C(=O)OC)c3)c2n1 [Example 24, methyl (3-((2-(2-methoxyethoxy)-8-oxo-7,8-dihydro-9H-purin-9-yl)methyl)benzyl)-L-pyrrolidine-2-carboxylate] | > 100 µM | > 100 µM | 
COCCCOc1ncc2[nH]c(=O)n(Cc3ccc(CN4CCCC4)cc3)c2n1 [Example 45, 9-(4-(pyrrolidin-1-ylmethyl)benzyl)-2-(3-methoxypropoxy)-7,9-dihydro-8H-purin-8-one] | 0.001 to 1 µM | > 100 µM | 
COCCOc1ncc2[nH]c(=O)n(C(C)c3ccc(CN4CCCC4)cc3)c2n1 (stereo not drawn) [Example 36] | 10 to 100 µM | > 100 µM | 
COCCOc1nc(O)c2[nH]c(=O)n(Cc3ccc(CN4CCCC4)cc3)c2n1 [Example 69, 6-hydroxy-2-(2-methoxyethoxy)-9-(4-(pyrrolidin-1-ylmethyl)benzyl)-7,9-dihydro-8H-purin-8-one] | 10 to 100 µM | > 100 µM | 
COCCOc1ncc2[nH]c(=O)n(Cc3ccc(CN4CCCC4)c(F)c3)c2n1 [Example 62, 2-(2-methoxyethoxy)-9-(3-fluoro-4-(pyrrolidin-1-ylmethyl)benzyl)-7,9-dihydro-8H-purin-8-one] | 1 to 10 µM | > 100 µM | 
O=c1[nH]c2cnc(OCCO)nc2n1Cc1ccc(CN2CCCC2)cc1 [Example 38, 2-(2-hydroxyethoxy)-9-(4-(pyrrolidin-1-ylmethyl)benzyl)-7,9-dihydro-8H-purin-8-one] | 10 to 100 µM | > 100 µM | 
O=c1[nH]c2cnc(OCC3CCCO3)nc2n1Cc1ccc(CN2CCCC2)cc1 (stereo not drawn) [Example 46, 9-(4-(pyrrolidin-1-ylmethyl)benzyl)-2-((tetrahydrofuran-2-yl)methoxy)-7,9-dihydro-8H-purin-8-one] | 1 to 10 µM | > 100 µM | 
CCCCS(=O)(=O)c1ncc2[nH]c(=O)n(Cc3cccc(CN4CCCC4)c3)c2n1 [Example 35, 2-butylsulfonyl-9-(3-(pyrrolidin-1-ylmethyl)benzyl)-7,9-dihydro-8H-purin-8-one] | > 100 µM | > 100 µM | 
CCN(CC)Cc1ccc(Cn2c(=O)[nH]c3cnc(OCCOC)nc32)cc1 [Example 10] | 1 to 10 µM | > 100 µM | 
COCCOc1ncc2[nH]c(=O)n(Cc3ccc(CN4CCC[C@@H]4C(=O)OC)cc3)c2n1 [Example 7, methyl (4-((2-(2-methoxyethoxy)-8-oxo-7,8-dihydro-9H-purin-9-yl)methyl)benzyl)-D-pyrrolidine-2-carboxylate] | 10 to 100 µM | > 100 µM | 
CCCC[S+]([O-])c1ncc2[nH]c(=O)n(Cc3cccc(CN4CCCC4)c3)c2n1 (stereo not drawn) [Example 34, 2-butylsulfinyl-9-(3-(pyrrolidin-1-ylmethyl)benzyl)-7,9-dihydro-8H-purin-8-one] | > 100 µM | > 100 µM | 
COCCOc1ncc2[nH]c(=S)n(Cc3ccc(CN4CCCC4)cc3)c2n1 [Example 60, 2-(2-methoxyethoxy)-9-(4-(pyrrolidin-1-ylmethyl)benzyl)-7,9-dihydro-8H-purin-8-thione] | > 100 µM | > 100 µM | 
COCCOc1ncc2[nH]c(=O)n(Cc3ccc(CN(C)C)cc3)c2n1 [Example 9, 9-(4-((dimethylamino)methyl)benzyl)-2-(2-methoxyethoxy)-7,9-dihydro-8H-purin-8-one] | 1 to 10 µM | > 100 µM | 
O=c1[nH]c2cnc(OCCOC(F)(F)F)nc2n1Cc1ccc(CN2CCCC2)cc1 [Example 43] | 0.001 to 1 µM | > 100 µM | 
CCCCOc1ncc2[nH]c(=O)n(Cc3cccc(CN4CCCC4)c3)c2n1 [Example 27, 2-butoxy-9-(3-(pyrrolidin-1-ylmethyl)benzyl)-7,9-dihydro-8H-purin-8-one] | > 100 µM | 10 to 100 µM | 
COCCOc1ncc2[nH]c(=O)n(Cc3ccc(CN4CCC4)cc3)c2n1 [Example 2, 2-(2-methoxyethoxy)-9-(4-(azetidin-1-ylmethyl)benzyl)-7,9-dihydro-8H-purin-8-one] | 10 to 100 µM | > 100 µM | 
COCCOc1ncc2[nH]c(=O)n(Cc3cccc(CN4CCN(C)CC4)c3)c2n1 [Example 25, 2-(2-methoxyethoxy)-9-(3-((4-methylpiperazin-1-yl)methyl)benzyl)-7,9-dihydro-8H-purin-8-one] | 10 to 100 µM | > 100 µM | 
CCC(c1ccc(Cn2c(=O)[nH]c3cnc(OCCOC)nc32)cc1)N1CCCC1 (stereo not drawn) [Example 17] | 1 to 10 µM | > 100 µM | 
COCCOc1ncc2c(n1)n(Cc1ccc(CN3CCCC3)cc1)c(=O)n2C [Example 56, 9-(4-(pyrrolidin-1-ylmethyl)benzyl)-7-methyl-2-(2-methoxyethoxy)-7,9-dihydro-8H-purin-8-one] | > 100 µM | > 100 µM | 
COCCOc1ncc2[nH]c(=O)n(Cc3cccc(CN4CCC4)c3)c2n1 [Example 19, 2-(2-methoxyethoxy)-9-(3-(azetidin-1-ylmethyl)benzyl)-7,9-dihydro-8H-purin-8-one] | 1 to 10 µM | > 100 µM | 
COCCOc1ncc2[nH]c(=O)n(Cc3ccc(CN4CCC[C@H]4C(=O)OC)cc3)c2n1 [Example 8, methyl (4-((2-(2-methoxyethoxy)-8-oxo-7,8-dihydro-9H-purin-9-yl)methyl)benzyl)-L-pyrrolidine-2-carboxylate] | 10 to 100 µM | > 100 µM | 
COCCOc1ncc2[nH]c(=O)n(Cc3ccc(CN4CCCCCC4)cc3)c2n1 [Example 4, 2-(2-methoxyethoxy)-9-(4-(azepan-1-ylmethyl)benzyl)-7,9-dihydro-8H-purin-8-one] | 1 to 10 µM | > 100 µM | 
CCOCc1nc2c(N)nc3ccccc3c2n1CC(C)(C)O [Example R848, reference compound] |  |  | strong agonistic activity
